Results as given in publication PMC6791383, “A side-by-side evaluation of [^18F]FDOPA enantiomers for non-invasive detection of neuroendocrine tumors by positron emission tomography” (Oncotarget, 2019).

What was measured:
PC12 cells = test: In vitro uptake (binding) assay in PC12 cells; assay type: cell-based; conditions: 30mins incubation, 1 million cells
Method: (§1) Both [^18F]FDOPA enantiomers were initially assessed in vitro in all NET cells.
(§2) In vitro binding assays were carried out, in triplicate, in PBS with 0.5% FBS, for 30mins at ambient temperatures using 1 million cells and repeated three times. Blocking studies were carried out using 10meq of the commercial LAT1 inhibitor, 2-Aminobicyclo[2.2.1]heptane-2-carboxylic acid (TOCRIS, MN, USA). Following incubation with each tracer, cells were rinsed three times with cold PBS prior to being counted on an automated gamma counter (1282 Compugamma CS; Pharmacia/LKBNuclear, Inc.) along with external standards. Obtained counts were converted into percentage incubated dose per million cells based on normalization to external standards. Experiments were performed in triplicate and repeated three times.

LAT1 = test: In vivo PET-CT blocking by BCH in NET mouse models; parameters: species or system mice; conditions: all NET mouse models (PC12, STC-1, COLO-320), 10meq LAT1 inhibitor
Method: (§3) Mice (n=4) were injected with 9MBq (250μCi) of each tracer in 150μL of saline intravenously and anesthetized with 3% isoflurane prior to being placed on the scanner bed. Mice were kept warm with an external light source and maintained at 1% isoflurane levels while being scanned. PET imaging (2 beds; 10 min per bed) was carried out using an ARGUS small-animal PET/CT scanner (Sedecal). A CT scan (512 projections) was obtained at the end of each PET scan for anatomical co-registration. For in vivo blocking experiments, mice were injected with 10meq of LAT1 inhibitor. PET data were reconstructed using the 2-dimensional ordered subsets-expectation maximization algorithm (2D-OSEM) and corrected for dead time and radioactive decay. Data visualization and image generation were carried out using Amira 2019.1 (ThermoFisher Scientific).
(§4) Quantitative in vivo image analysis was carried out in AMIDE (SourceForge) 1.0.4 utilizing ellipsoid region-of-interest volume integrations with 3 slices entailing a depth of 1.9 mm per slice. The %ID per cc values were calculated based on a calibration factor obtained from a phantom (known radioactive quantity in a known volume).

TGP52 cells = test: In vitro uptake (binding) assay in TGP52 cells; assay type: cell-based; conditions: 30mins incubation, 1 million cells, % incubated dose/million cells
Method: as §1, §2

TGP61 cells = test: In vitro uptake (binding) assay in TGP61 cells; assay type: cell-based; conditions: 30mins incubation, 1 million cells, % incubated dose/million cells
Method: as §1, §2

[1] = system: NET xenografts (STC-1, PC12, COLO-320); test: Ex vivo biodistribution, across all NET mouse models; assay type: in vivo, mice; conditions: for brain accumulation, average in all NET mice: average over STC-1, COLO-320 and PC12 mice; for retention in small intestines, fold lower than L-[^18F]FDOPA: all NET models
Method: (§5) All animal studies were carried out according to regulations set forth and approved by the Johns Hopkins Animal Care and Use Committee. Female, 6- to 8-weeks-old immunodeficient NOD scid gamma (NSG) mice were subcutaneously inoculated with 1 million PC12, STC-1 or COLO-320 cells in […] of Hank’s balanced salt solution in the top flank. Tumors of 4–6 mm in diameter (typically 14-21 days post inoculation) were utilized for in vivo imaging or ex vivo biodistribution studies.
(§6) Mice (n=5 per group) were intravenously injected with 1.5MBq (40μCi) of each tracer in 150μL of saline. Ex vivo biodistribution studies were performed at 30min and 120min time points after tracer administration. Blood, liver, spleen, heart, lungs, kidneys, small intestines, stomach, muscle, fat, bone, bladder, brain and tumor tissues were retrieved, weighed, and counted in an automated gamma counter (1282 Compugamma CS). Percentage injected dose per gram (%ID/g) values were calculated based on normalization to external standards, counted in triplicate, and accounted for signal-decay correction.

COLO-320 xenografts = test: Ex vivo biodistribution in NSG mice bearing COLO-320 xenografts; conditions: for Biodistribution, Bladder / Biodistribution, Blood / Biodistribution, Bone / Biodistribution, Brain / Biodistribution, Fat / Biodistribution, Heart / Biodistribution, Kidneys / Biodistribution, Liver / Biodistribution, Lungs / Biodistribution, Muscle / Biodistribution, Pancreas / Biodistribution, Small Intestines / Biodistribution, Spleen / Biodistribution, Stomach / Biodistribution, Tumor: COLO-320 xenograft NSG mice, 1.5MBq i.v.
Method: as §5, §6

PC12 xenografts [2] = test: Ex vivo biodistribution in NSG mice bearing PC12 xenografts; conditions: for Biodistribution, Bladder / Biodistribution, Blood / Biodistribution, Bone / Biodistribution, Brain / Biodistribution, Fat / Biodistribution, Heart / Biodistribution, Kidneys / Biodistribution, Liver / Biodistribution, Lungs / Biodistribution, Muscle / Biodistribution, Pancreas / Biodistribution, Small Intestines / Biodistribution, Spleen / Biodistribution, Stomach / Biodistribution, Tumor: PC12 xenograft NSG mice, 1.5MBq i.v.
Method: as §5, §6

STC-1 xenografts = test: In vivo PET-CT quantitative image analysis, STC-1 xenografts; conditions: STC-1 tumors, NSG mice, 9MBq
Method: as §5, §3, §4

PC12 xenografts [3] = test: In vivo PET-CT quantitative image analysis, PC12 xenografts; conditions: PC12 tumors, NSG mice, 9MBq
Method: as §5, §3, §4

SMILES: N[C@H](Cc1cc(O)c(O)cc1[18F])C(=O)O [D-[^18F]FDOPA, 3,4-dihydroxy-6-[^18F]fluoro-D-phenylalanine]
- in vitro uptake (PC12 cells): 2.97±0.24 % (incubated dose/million cells)
- tumor uptake after in vivo blocking by BCH (LAT1): significantly reduced
- in vitro uptake (TGP52 cells): 3.18±0.19%
- in vitro uptake (TGP61 cells): 3.11±0.41%
- brain accumulation, average in all NET mice ([1]; 30min p.i.): 0.31±0.05 %ID/g
- brain accumulation, average in all NET mice ([1]; 120min p.i.): 0.34±0.08 %ID/g
- hepatic retention, fold lower than L-[^18F]FDOPA ([1]; NET models): up to 4 fold
- renal retention, fold lower than L-[^18F]FDOPA ([1]; NET models): up to 4 fold
- retention in small intestines, fold lower than L-[^18F]FDOPA ([1]; 30min): up to 4 fold
- retention in small intestines, fold lower than L-[^18F]FDOPA ([1]; 120min p.i.): up to 7 fold
- pancreatic retention, fold lower compared to L-[^18F]FDOPA (COLO-320 xenografts; COLO-320 mice, 120min p.i.): 12 fold
- Biodistribution, Bladder (COLO-320 xenografts; 30min p.i.): 3.81 %ID/g
- Biodistribution, Blood (COLO-320 xenografts; 30min p.i.): 2.58 %ID/g
- Biodistribution, Bone (COLO-320 xenografts; 30min p.i.): 3.28 %ID/g
- Biodistribution, Brain (COLO-320 xenografts; 30min p.i.): 0.19 %ID/g
- Biodistribution, Fat (COLO-320 xenografts; 30min p.i.): 0.31 %ID/g
- Biodistribution, Heart (COLO-320 xenografts; 30min p.i.): 1.57 %ID/g
- Biodistribution, Kidneys (COLO-320 xenografts; 30min p.i.): 7.05 %ID/g
- Biodistribution, Liver (COLO-320 xenografts; 30min p.i.): 2.65 %ID/g
- Biodistribution, Lungs (COLO-320 xenografts; 30min p.i.): 3.60 %ID/g
- Biodistribution, Muscle (COLO-320 xenografts; 30min p.i.): 0.89 %ID/g
- Biodistribution, Pancreas (COLO-320 xenografts; 30min p.i.): 34.93 %ID/g
- Biodistribution, Small Intestines (COLO-320 xenografts; 30min p.i.): 3.89 %ID/g
- Biodistribution, Spleen (COLO-320 xenografts; 30min p.i.): 4.77 %ID/g
- Biodistribution, Stomach (COLO-320 xenografts; 30min p.i.): 2.48 %ID/g
- Biodistribution, Tumor (COLO-320 xenografts; 30min p.i.): 3.61 %ID/g
- Biodistribution, Bladder (COLO-320 xenografts; 120min p.i.): 3.68 %ID/g
- Biodistribution, Blood (COLO-320 xenografts; 120min p.i.): 0.51 %ID/g
- Biodistribution, Bone (COLO-320 xenografts; 120min p.i.): 4.10 %ID/g
- Biodistribution, Brain (COLO-320 xenografts; 120min p.i.): 0.19 %ID/g
- Biodistribution, Fat (COLO-320 xenografts; 120min p.i.): 0.29 %ID/g
- Biodistribution, Heart (COLO-320 xenografts; 120min p.i.): 0.80 %ID/g
- Biodistribution, Kidneys (COLO-320 xenografts; 120min p.i.): 1.44 %ID/g
- Biodistribution, Liver (COLO-320 xenografts; 120min p.i.): 0.54 %ID/g
- Biodistribution, Lungs (COLO-320 xenografts; 120min p.i.): 1.52 %ID/g
- Biodistribution, Muscle (COLO-320 xenografts; 120min p.i.): 1.12 %ID/g
- Biodistribution, Pancreas (COLO-320 xenografts; 120min p.i.): 3.12 %ID/g
- Biodistribution, Small Intestines (COLO-320 xenografts; 120min p.i.): 1.46 %ID/g
- Biodistribution, Spleen (COLO-320 xenografts; 120min p.i.): 1.67 %ID/g
- Biodistribution, Stomach (COLO-320 xenografts; 120min p.i.): 0.99 %ID/g
- Biodistribution, Tumor (COLO-320 xenografts; 120min p.i.): 3.72 %ID/g
- pancreatic retention, fold lower compared to L-[^18F]FDOPA (PC12 xenografts [2]; PC12 mice, 120min p.i.): ~11 fold
- Biodistribution, Bladder (PC12 xenografts [2]; 30min p.i.): 3.96 %ID/g
- Biodistribution, Blood (PC12 xenografts [2]; 30min p.i.): 2.52 %ID/g
- Biodistribution, Bone (PC12 xenografts [2]; 30min p.i.): 2.71 %ID/g
- Biodistribution, Brain (PC12 xenografts [2]; 30min p.i.): 0.19 %ID/g
- Biodistribution, Fat (PC12 xenografts [2]; 30min p.i.): 0.28 %ID/g
- Biodistribution, Heart (PC12 xenografts [2]; 30min p.i.): 1.28 %ID/g
- Biodistribution, Kidneys (PC12 xenografts [2]; 30min p.i.): 5.30 %ID/g
- Biodistribution, Liver (PC12 xenografts [2]; 30min p.i.): 3.05 %ID/g
- Biodistribution, Lungs (PC12 xenografts [2]; 30min p.i.): 3.53 %ID/g
- Biodistribution, Muscle (PC12 xenografts [2]; 30min p.i.): 0.79 %ID/g
- Biodistribution, Pancreas (PC12 xenografts [2]; 30min p.i.): 28.22 %ID/g
- Biodistribution, Small Intestines (PC12 xenografts [2]; 30min p.i.): 3.76 %ID/g
- Biodistribution, Spleen (PC12 xenografts [2]; 30min p.i.): 3.99 %ID/g
- Biodistribution, Stomach (PC12 xenografts [2]; 30min p.i.): 2.52 %ID/g
- Biodistribution, Tumor (PC12 xenografts [2]; 30min p.i.): 2.96 %ID/g
- Biodistribution, Bladder (PC12 xenografts [2]; 120min p.i.): 5.93 %ID/g
- Biodistribution, Blood (PC12 xenografts [2]; 120min p.i.): 0.48 %ID/g
- Biodistribution, Bone (PC12 xenografts [2]; 120min p.i.): 4.84 %ID/g
- Biodistribution, Brain (PC12 xenografts [2]; 120min p.i.): 0.23 %ID/g
- Biodistribution, Fat (PC12 xenografts [2]; 120min p.i.): 0.34 %ID/g
- Biodistribution, Heart (PC12 xenografts [2]; 120min p.i.): 0.84 %ID/g
- Biodistribution, Kidneys (PC12 xenografts [2]; 120min p.i.): 1.23 %ID/g
- Biodistribution, Liver (PC12 xenografts [2]; 120min p.i.): 0.73 %ID/g
- Biodistribution, Lungs (PC12 xenografts [2]; 120min p.i.): 2.04 %ID/g
- Biodistribution, Muscle (PC12 xenografts [2]; 120min p.i.): 1.02 %ID/g
- Biodistribution, Pancreas (PC12 xenografts [2]; 120min p.i.): 3.42 %ID/g
- Biodistribution, Small Intestines (PC12 xenografts [2]; 120min p.i.): 1.90 %ID/g
- Biodistribution, Spleen (PC12 xenografts [2]; 120min p.i.): 1.86 %ID/g
- Biodistribution, Stomach (PC12 xenografts [2]; 120min p.i.): 1.36 %ID/g
- Biodistribution, Tumor (PC12 xenografts [2]; 120min p.i.): 1.44 %ID/g
- tumor uptake, quantitative PET image analysis (STC-1 xenografts; 30min post i.v. injection): 12.01±1.61 %ID/cc
- tumor uptake, quantitative PET image analysis (STC-1 xenografts; 120min post i.v. injection): 3.34±0.32 %ID/cc
- tumor uptake, quantitative PET image analysis (PC12 xenografts [3]; 30min post i.v. injection): 8.87±0.31 %ID/cc
- tumor uptake, quantitative PET image analysis (PC12 xenografts [3]; 120min post i.v. injection): 3.96±0.34 %ID/cc
